According to US11679108B2, “Aromatic heterocyclic compound, and pharmaceutical composition and use thereof” (GUANGZHOU HENOVCOM BIOSCIENCE CO., LTD., priority 2018, dated 2023):

target: ATX (Homo sapiens, UniProt Q13822); experiment: Analysis in vitro: LPC was used as substrate for screening enzyme activity (Amplex Red fluorescence); assay type: biochemical; conditions: inhibitory activity against ATX, with LPC as substrate
Source text: Analysis In Vitro: LPC was Used as Substrate for Screening Enzyme Activity
Principle: Lysophosphatidylcholine (LPC) as substrate is hydrolyzed by using the activity of lysoPLD enzyme, to produce lysophosphatidic acid (LPA) and choline, which is oxidized to produce H2O2 under the action of choline oxidase. In presence of horse radish peroxidase (HPR), Amplex Red reagent is reacted with H2O2 in a quantitative chemistry ratio of 1 to 1, to produce strong fluorescence products, which are detected by a fluorescent quantitative test.
Experimental procedures: the compounds to be tested were dissolved in DMSO, to prepare 10 mM of stock solution, which was diluted in a gradient concentration of 3 times with DMSO from 10 mM, to generate 10 concentration gradients. The reaction buffer solution was used for preparing a mixed solution 1 of 2 ng/μl ATX, 2 U/ml HRP and 0.2 U/ml choline oxidase in a final concentration. 20 μl of the above mixed solution 1 was added to each hole of an experiment board, […]. The compounds diluted with DMSO were transferred into an experiment board with Echo550. The reaction buffer solution was used for preparing a mixed solution 2 of […] LPC and 400 μM Amplex Red in a final concentration. 20 μl of the above mixed solution 2 was added to each hole of the experiment board. After addition, the experiment board was shook for 30 seconds on a shaker, and incubated for 30 minutes. Envision was used to read the fluorescence signals with an exciting light at 530 nm and emitted light at 590 nm. Inhibition ratio of the compounds to enzyme reaction was calculated according to the ratio of fluorescence, and IC50 of the compounds was analyzed and calculated by software, seeing Table 1.

IC50 [nM]	Structure (SMILES)
0.01 to 100	CCc1nc2sc(N3CCC(N(C)C(=O)N4CC(O)C4)C3)nn2c1N(C)c1nc(-c2ccc(F)cc2)c(C#N)s1 (stereo not shown) [Example 30, N-{1-[5-((5-cyano-4-(4-fluorophenyl)thiazol-2-yl)(methyl)amino)-6-ethylimidazo[2,1-b][1,3,4]thiadiazol-2-yl}pyrrolidin-3-yl}-3-hydroxy-N-methylazetidine-1-carboxamide]
100 to 500	CCc1nc2sc(N3CCC(N(C)C(=O)N(C)C)C3)nn2c1N(C)c1nc(-c2ccc(F)cc2)c(C#N)s1 (stereo not shown) [Example 31, 1-{1-[5-((5-cyano-4-(4-fluorophenyl)thiazol-2-yl)(methyl)amino)-6-ethylimidazo[2,1-b][1,3,4]thiadiazol-2-yl]pyrrolidin-3-yl}-1,3,3-trimethylurea]
100 to 500	CCc1nc2sc(N3CCC(N(C)C(=O)N4CCOCC4)C3)nn2c1N(C)c1nc(-c2ccc(F)cc2)c(C#N)s1 (stereo not shown) [Example 32, N-{1-[5-((5-cyano-4-(4-fluorophenyl)thiazol-2-yl)(methyl)amino)-6-ethylimidazo[2,1-b][1,3,4]thiadiazol-2-yl}pyrrolidin-3-yl}-N-methylmorpholine-4-carboxamide]
0.01 to 100	CCc1nc2sc(N3CCC(N(C)CC(=O)N4CC(F)C4)C3)nn2c1N(C)c1nc(-c2ccc(F)cc2)c(C#N)s1 (stereo not shown) [Example 33, 2-{[6-ethyl-2-(3-((2-(3-fluoroazetidin-1-yl)-2-oxoethyl)(methyl)amino)pyrrolidin-1-yl)imidazo[2,1-b][1,3,4]thiadiazol-5-yl](methyl)amino}-4-(4-fluorophenyl)thiazole-5-carbonitrile]
0.01 to 100	CCc1nc2sc(N3CCC(N(C)CC(=O)N4CCOCC4)C3)nn2c1N(C)c1nc(-c2ccc(F)cc2)c(C#N)s1 (stereo not shown) [Example 34, 2-{[6-ethyl-2-(3-(methyl(2-mophlin-2-oxoethyl)amino)pyrrolidin-1-yl)imidazo[2,1-b][1,3,4]thiadiazol-5-yl](methyl)amino}-4-(4-fluorophenyl)thiazole-5-carbonitrile]
0.01 to 100	CCc1nc2sc(N3CCC(N(C)CC(=O)N4CC(C(=O)O)C4)C3)nn2c1N(C)c1nc(-c2ccc(F)cc2)c(C#N)s1 (stereo not shown) [Example 35, 1-{2-[(1-(5-((5-cyano-4-(4-fluorophenyl)thiazol-2-yl)(methyl)amino)-6-ethylimidazo[2,1-b][1,3,4]thiadiazol-2-yl)pyrrolidin-3-yl)(methyl)amino]acetyl}azetidine-3-carboxylic acid]
100 to 500	CCc1nc2sc(N3CC[C@@H](N(C)CC(=O)N4CC(F)C4)C3)nn2c1N(C)c1nc(-c2ccc(F)cc2)c(C#N)s1 [Example 39, (R)-2-{[6-ethyl-2-(3-((2-(3-fluoroazetidin-1-yl)-2-oxoethyl)(methyl)amino)pyrrolidin-1-yl)imidazo[2,1-b][1,3,4]thiadiazol-5-yl](methyl)amino}-4-(4-fluorophenyl)thiazole-5-carbonitrile]
100 to 500	CCc1nc2sc(N3CC[C@@H](N(C)CC(=O)N4CCOCC4)C3)nn2c1N(C)c1nc(-c2ccc(F)cc2)c(C#N)s1 [Example 40, (R)-2-{[6-ethyl-2-(3-(methyl(2-morpholino-2-oxoethyl)amino)pyrrolidin-1-yl)imidazo[2,1-b][1,3,4]thiadiazol-5-yl](methyl)amino}-4-(4-fluorophenyl)thiazole-5-carbonitrile]
100 to 500	CCc1nc2sc(N3CC[C@@H](N(C)CC(=O)N4CC(C(=O)OC)C4)C3)nn2c1N(C)c1nc(-c2ccc(F)cc2)c(C#N)s1 [Example 42, methyl (R)-1-{2-[(1-(5-((5-cyano-4-(4-fluorophenyl)thiazol-2-yl)(methyl)amino)-6-ethylimidazo[2,1-b][1,3,4]thiadiazol-2-yl)pyrrolidin-3-yl)(methyl)amino]acetyl}azetidine-3-carboxylate]
0.01 to 100	CCc1nc2sc(N3CC[C@H](N(C)CC(=O)N4CC(C(=O)OC)C4)C3)nn2c1N(C)c1nc(-c2ccc(F)cc2)c(C#N)s1 [Example 43, methyl (S)-1-{2-[(1-(5-((5-cyano-4-(4-fluorophenyl)thiazol-2-yl)(methyl)amino)-6-ethylimidazo[2,1-b][1,3,4]thiadiazol-2-yl)pyrrolidin-3-yl)(methyl)amino]acetyl}azetidine-3-carboxylate]
100 to 500	CCc1nc2sc(N3CC[C@@H](N(C)CC(=O)N4CC(C(=O)O)C4)C3)nn2c1N(C)c1nc(-c2ccc(F)cc2)c(C#N)s1 [Example 44, (R)-1-{2-[(1-(5-((5-cyano-4-(4-fluorophenyl)thiazol-2-yl)(methyl)amino)-6-ethylimidazo[2,1-b][1,3,4]thiadiazol-2-yl}pyrrolidin-3-yl)(methyl)amino]acetyl}azetidine-3-carboxylic acid]
100 to 500	CCc1nc2sc(N3CC[C@@H](N(C)CC(=O)N4CC(C#N)C4)C3)nn2c1N(C)c1nc(-c2ccc(F)cc2)c(C#N)s1 [Example 46, (R)-2-{[2-(3-((2-(3-cyanoazetidin-1-yl)-2-oxoethyl)(methyl)amino)pyrrolidin-1-yl)-6-ethylimidazo[2,1-b][1,3,4]thiadiazol-5-yl](methyl)amino}-4-(4-fluorophenyl)thiazole-5-carbonitrile]
0.01 to 100	CCc1nc2sc(N3CCN(CC(=O)N4CC(O)C4)[C@H](C(=O)OC)C3)nn2c1N(C)c1nc(-c2ccc(F)cc2)c(C#N)s1 [Example 81, methyl (S)-4-{5-[(5-cyano-4-(4-fluorophenyl)thiazol-2-yl)(methyl)amino]-6-ethylimidazo[2,1-b][1,3,4]thiadiazol-2-yl}-1-(2-(3-hydroxyazetidin-1-yl)-2-oxoethyl)piperazine-2-carboxylate]
100 to 500	CCc1nc2sc(N3CCN(CC(=O)N4CC(O)C4)[C@H](CO)C3)nn2c1N(C)c1nc(-c2ccc(F)cc2)c(C#N)s1 [Example 82, (S)-2-{[6-ethyl-2-(4-(2-(3-hydroxyazetidin-1-yl)-2-oxoethyl)-3-(hydroxymethyl)piperazin-1-yl)imidazo[2,1-b][1,3,4]thiadiazol-5-yl](methyl)amino}-4-(4-fluorophenyl)thiazole-5-carbonitrile]
500 to 1000	CCc1nc2sc(N3CCN(CC(=O)N4CC(O)C4)[C@H](C(=O)NC)C3)nn2c1N(C)c1nc(-c2ccc(F)cc2)c(C#N)s1 [Example 83, (S)-4-{5-[(5-cyano-4-(4-fluorophenyl)thiazol-2-yl)(methyl)amino]-6-ethylimidazo[2,1-b][1,3,4]thiadiazol-2-yl}-1-(2-(3-hydroxyazetidin-1-yl)-2-oxoethyl)-N-methylpiperazine-2-carboxamide]
100 to 500	CCc1nc2sc(N3CCN(CC(=O)N4CC(O)C4)[C@@H](C(=O)OC)C3)nn2c1N(C)c1nc(-c2ccc(F)cc2)c(C#N)s1 [Example 84, methyl (R)-4-{5-[(5-cyano-4-(4-fluorophenyl)thiazol-2-yl)(methyl)amino]-6-ethylimidazo[2,1-b][1,3,4]thiadiazol-2-yl}-1-(2-(3-hydroxyazetidin-1-yl)-2-oxoethyl)piperazine-2-carboxylate]
500 to 1000	CCc1nc2sc(N3CCN(CC(=O)N4CC(O)C4)[C@@H](CO)C3)nn2c1N(C)c1nc(-c2ccc(F)cc2)c(C#N)s1 [Example 85, (R)-2-{[6-ethyl-2-(4-(2-(3-hydroxyazetidin-1-yl)-2-oxoethyl)-3-(hydroxymethyl)piperazin-1-yl)imidazo[2,1-b][1,3,4]thiadiazol-5-yl](methyl)amino}-4-(4-fluorophenyl)thiazole-5-carbonitrile]
≥ 1000	CN(c1nc(-c2ccc(F)cc2)c(C#N)s1)c1c(CCOCc2ccccc2)nc2sc(N3CC[C@@H](N(C)CC(=O)N4CC(O)C4)C3)nn12 [Example 86]
500 to 1000	CN(c1nc(-c2ccc(F)cc2)c(C#N)s1)c1c(CCO)nc2sc(N3CC[C@@H](N(C)CC(=O)N4CC(O)C4)C3)nn12 [Example 87, (R)-4-(4-fluorophenyl)-2-{[2-(3-((2-(3-hydroxyazetidin-1-yl)-2-oxoethyl)(methyl)amino)pyrrolidin-1-yl)-6-(2-hydroxyethyl)imidazo[2,1-b][1,3,4]thiadiazol-5-yl](methyl)amino}thiazole-5-carbonitrile]
100 to 500	COCCc1nc2sc(N3CC[C@@H](N(C)CC(=O)N4CC(O)C4)C3)nn2c1N(C)c1nc(-c2ccc(F)cc2)c(C#N)s1 [Example 88, (R)-4-(4-fluorophenyl)-2-{[2-(3-((2-(3-hydroxyazetidin-1-yl)-2-oxoethyl)(methyl)amino)pyrrolidin-1-yl)-6-(2-methoxyethyl)imidazo[2,1-b][1,3,4]thiadiazol-5-yl](methyl)amino}thiazole-5-carbonitrile]
100 to 500	CCc1nc2sc(N3CC[C@@H](N(CC)CC(=O)N4CC(O)C4)C3)nn2c1N(C)c1nc(-c2ccc(F)cc2)c(C#N)s1 [Example 89, (R)-2-{[6-ethyl-2-(3-(ethyl(2-(3-hydroxyazetidin-1-yl)-2-oxoethyl)amino)pyrrolidin-1-yl)imidazo[2,1-b][1,3,4]thiadiazol-5-yl](methyl)amino}-4-(4-fluorophenyl)thiazole-5-carbonitrile]
≥ 1000	CCc1nc2sc(N3CC[C@@H](N(CC(=O)N4CC(O)C4)CC4CC4)C3)nn2c1N(C)c1nc(-c2ccc(F)cc2)c(C#N)s1 [Example 90]
